{
  "source": "patent US20230082651A1",
  "about": "“STABLE AQUEOUS COMPOSITIONS OF PLANTS EXTRACTS AND METHODS OF MAKING THE SAME” (Nulixir Inc., priority 2021, published 2023)",
  "origin": "cited, not measured here",
  "key": {"[1]": {"conditions": "water and n-octanol; categorization at pH=7 unless stated otherwise"}, "[2]": {"conditions": "as a function of water content"}},
  "data": [
    {"compound": "tortuosomine", "values": [
      {"measurement": "log P", "setting": "[1]", "result": "~3"}
    ]},
    {"compound": "CC1=C(CO)C(=O)O[C@@H]([C@@H](C)[C@H]2CC[C@H]3[C@@H]4C[C@H](Cl)[C@]5(O)[C@@H](O)C=CC(=O)[C@]5(C)[C@H]4CC[C@]23C)C1", "note": "[6a-chloro-5b-hydroxywithaferin A]", "values": [
      {"measurement": "log P", "setting": "[1]", "result": "~3.2"}
    ]},
    {"compound": "hericerin", "values": [
      {"measurement": "log P", "setting": "[1]", "result": "~6.4"}
    ]},
    {"compound": "COc1ccc([C@@]23C=CC(=O)C[C@@H]2N(C)CC3)cc1OC", "note": "[mesembrenone]", "values": [
      {"measurement": "log P", "setting": "[1]", "result": "~1.3"}
    ]},
    {"compound": "COc1nc2c(c(=O)n1C)n(C)c(=O)n2C", "note": "[methylliberine]", "values": [
      {"measurement": "log P", "setting": "[1]", "result": "~−0.083"}
    ]},
    {"compound": "herinacine A", "values": [
      {"measurement": "log P", "setting": "[1]", "result": "~2.5"}
    ]},
    {"compound": "bacopaside B", "values": [
      {"measurement": "log P", "setting": "[1]", "result": "~2.8"}
    ]},
    {"compound": "COc1c2c(cc3c1-c1c(cc4c(c1OC)OCO4)C[C@H](C)[C@H](C)C3)OCO2", "note": "[(−)-schisandrin C]", "values": [
      {"measurement": "log P", "setting": "[1]", "result": "~3.5"}
    ]},
    {"compound": "COC1=CC(=O)OC(/C=C/c2ccc(OC)cc2)C1", "note": "(stereo not drawn) [5,6-dihydroyangonin]", "values": [
      {"measurement": "log P", "setting": "[1]", "result": "~2.5"}
    ]},
    {"compound": "COc1ccc([C@@]23CCC(=O)C[C@@H]2N(C)CC3)cc1OC", "note": "[mesembrine]", "values": [
      {"measurement": "log P", "setting": "[1]", "result": "~1.5"}
    ]},
    {"compound": "CC(=O)OC1C=CC(=O)N(C(=O)CCc2ccccc2)C1", "note": "(stereo not drawn) [pipermethystine]", "values": [
      {"measurement": "log P", "setting": "[1]", "result": "~1.8"}
    ]},
    {"compound": "N#C[C@@]1(O[C@@H]2O[C@H](CO)[C@@H](O)[C@H](O)[C@H]2O)C=C[C@@H](O)C1", "note": "[tetraphyllin B]", "values": [
      {"measurement": "log P", "setting": "[1]", "result": "~−2.5"}
    ]},
    {"compound": "COc1ccc2cc3[n+](cc2c1OC)CCc1cc2c(cc1-3)OCO2", "note": "[berberine]", "values": [
      {"measurement": "solubility in ethanol", "setting": "[2]", "result": "decreases rapidly with water content"}
    ]},
    {"compound": "CC(C)=CCC[C@](C)(O[C@@H]1O[C@H](CO[C@@H]2O[C@H](CO)[C@@H](O)[C@H](O)[C@H]2O)[C@@H](O)[C@H](O)[C@H]1O)[C@H]1CC[C@]2(C)[C@@H]1[C@H](O)C[C@@H]1[C@@]3(C)CC[C@H](O[C@@H]4O[C@H](CO)[C@@H](O)[C@H](O)[C@H]4O[C@@H]4O[C@H](CO)[C@@H](O)[C@H](O)[C@H]4O)C(C)(C)[C@@H]3CC[C@]12C", "note": "[ginsenoside rb1]", "values": [
      {"measurement": "log P", "setting": "[1]", "result": "~−1"}
    ]},
    {"compound": "COc1ccc(CCc2cc(OC)cc(=O)o2)cc1", "note": "[7,8-dihydroyangonin]", "values": [
      {"measurement": "log P", "setting": "[1]", "result": "~2.9"}
    ]},
    {"compound": "COc1cc2c(c(OC)c1OC)-c1c(cc(OC)c(OC)c1OC)C[C@H](C)[C@H](C)C2", "note": "[(−)-schisandrin A]", "values": [
      {"measurement": "log P", "setting": "[1]", "result": "~3.6"}
    ]},
    {"compound": "COC1=CC(=O)O[C@@H](CCc2ccc3c(c2)OCO3)C1", "note": "[7,8-dihydromethysticin]", "values": [
      {"measurement": "log P", "setting": "[1]", "result": "~2.2"}
    ]},
    {"compound": "COc1cc([C@H]2Oc3cc(O)c4c(=O)c(O)c(-c5ccc(O)cc5)oc4c3O[C@@H]2CO)ccc1O", "note": "[rhodiolin]", "values": [
      {"measurement": "log P", "setting": "[1]", "result": "~2"}
    ]},
    {"compound": "COc1ccc(C23C=CC(O)CC2N(C)CC3)cc1OC", "note": "(stereo not drawn) [mesembrenol]", "values": [
      {"measurement": "log P", "setting": "[1]", "result": "~2.4"}
    ]},
    {"compound": "CC(C)=C[C@H]1C[C@](C)(O)[C@@H]2[C@H]3CC[C@@H]4[C@@]5(C)CC[C@H](O[C@@H]6OC[C@H](O)[C@H](O[C@@H]7O[C@H](CO)[C@@H](O)[C@H](O)[C@H]7O)[C@H]6O[C@@H]6O[C@@H](CO)[C@H](O)[C@H]6O)C(C)(C)[C@@H]5CC[C@@]4(C)[C@@]34CO[C@@]2(C4)O1", "note": "[bacopaside X]", "values": [
      {"measurement": "log P", "setting": "[1]", "result": "~2.2"}
    ]},
    {"compound": "CC(C)=C[C@H]1C[C@](C)(O)[C@H]2[C@H]3CC[C@@H]4[C@@]5(C)CC[C@H](O[C@@H]6O[C@H](CO)[C@@H](O)[C@H](O[C@@H]7O[C@H](CO)[C@@H](O)[C@H](O)[C@H]7O)[C@H]6O[C@@H]6O[C@@H](CO)[C@H](O)[C@H]6O)C(C)(C)[C@@H]5CC[C@@]4(C)[C@@]34CO[C@@]2(C4)O1", "note": "[bacoside A3]", "values": [
      {"measurement": "log P", "setting": "[1]", "result": "~2.1"}
    ]},
    {"compound": "schisandroside C", "values": [
      {"measurement": "log P", "setting": "[1]", "result": "~1.6"}
    ]},
    {"compound": "CC(C)=CCC[C@](C)(O[C@@H]1O[C@H](CO)[C@@H](O)[C@H](O)[C@H]1O)[C@H]1CC[C@]2(C)[C@@H]1[C@H](O)C[C@@H]1[C@@]3(C)CC[C@H](O)C(C)(C)[C@@H]3[C@@H](O[C@@H]3O[C@H](CO)[C@@H](O)[C@H](O)[C@H]3O)C[C@]12C", "note": "[ginsenoside rgl]", "values": [
      {"measurement": "log P", "setting": "[1]", "result": "~0.8"}
    ]},
    {"compound": "COc1cc(/C=C\\c2ccc(OC)c(O)c2)oc(=O)c1", "note": "[11-hydroxyyangonin]", "values": [
      {"measurement": "log P", "setting": "[1]", "result": "~2.2"}
    ]},
    {"compound": "COc1cc2c(c(OC)c1OC)-c1c(cc(OC)c(OC)c1OC)C[C@](C)(O)[C@@H](C)C2", "note": "[(+)-schisandrin]", "values": [
      {"measurement": "log P", "setting": "[1]", "result": "~5"}
    ]},
    {"compound": "CC(C)=C[C@@H]1CO[C@]23C[C@]4(CO2)[C@H](CC[C@@H]2[C@@]5(C)CC[C@H](O[C@@H]6OC[C@H](O)[C@H](O[C@@H]7O[C@H](CO)[C@@H](O)[C@H](O)[C@H]7O)[C@H]6O[C@@H]6O[C@@H](CO)[C@H](O)[C@H]6O)C(C)(C)[C@@H]5CC[C@]24C)[C@H]3[C@@]1(C)O", "note": "[bacopasaponin C]", "values": [
      {"measurement": "log P", "setting": "[1]", "result": "~2"}
    ]},
    {"compound": "(R)-kawain", "values": [
      {"measurement": "log P", "setting": "[1]", "result": "~2.7"}
    ]}
  ]
}
